Article PMC4403042, “Atrial-like cardiomyocytes from human pluripotent stem cells are a robust preclinical model for assessing atrial-selective pharmacology” (EMBO Molecular Medicine, 2015)

Assays:
COUP-TFII (NR2F2) = assay: qPCR of COUP-TFII after RA treatment; type: cell-based, human; settings: day 31 GFP+ CMs, RA-treated vs control differentiation
Description: In order to determine the dynamics of COUP-TF expression following RA treatment, expression levels of both COUP-TFI and II were analyzed by qPCR at different time points and compared to control EBs. COUP-TFs were induced within 24 h of treatment with RA followed by dramatic increase in expression thereafter. […] The expression of COUP-TFs was maintained in differentiated CMs at day 31. COUP-TFI was expressed 20-fold higher, and COUP-TFII was enriched over 30-fold in hESC-atrial CMs compared to hESC-ventricular CMs (Fig4A and B). Antibodies selectively binding to COUP-TFI or COUP-TFII were used to verify the expression of these proteins. […]
atRA (Sigma) was diluted in DMSO to make a solution of 50 mmol/L which was further diluted in distilled water to have a stock solution of 0.0001 mol/L. atRA was used in a final concentration of 1 µmol/L in BPEL medium to direct atrial […]
Gene expression was determined on the HumanHT-12 v4 Expression BeadChip at ServiceXS, Leiden, The Netherlands. […]
For assessing gene expression by qPCR, cDNA was synthesized from approximately 1µ g of RNA obtained from three independent differentiations (iScript cDNA Synthesis Kit, BIO-RAD). Target identification was performed using SYBR Green (Applied Biosystems, Life technologies) and detected by CFX96 Real-Time PCR system (Bio-Rad). […]

differentiating hESCs = assay: AP characterization of CMs generated from RA-treated differentiations (patch-clamp); type: cell-based, human
Text: To study the electrical phenotype of CMs treated with RA during differentiation, we measured APs of dissociated single cells using the patch-clamp method (Fig3). Representative APs stimulated at 1 Hz are shown in Fig3B. The AP of a CM treated with RA during differentiation (RA) depicts an AP with a fast phase-1 repolarization and a plateau phase with a more negative potential compared to a control (CT) CM (Fig3B).
Spin EBs resulting from control and RA-treated differentiations were dissociated at day 17 to single cells using TrypLE™ Select (Life Technologies) and plated on gelatin-coated coverslips. Electrophysiological measurements were performed 10–14 days after dissociation from intrinsically quiescent single GFP^+ CMs that were able to contract upon field stimulation.
APs and membrane currents from hESC-CMs were recorded with the amphotericin-B-perforated patch-clamp technique at 36 ± 0.2°C using an Axopatch 200B amplifier (Molecular Devices, Sunnyvale, CA, USA). […] AP measurements were low-pass-filtered (cutoff frequency 10 kHz) and digitized at 40 kHz; membrane currents were measured at 1 and 4 kHz, respectively. Capacitance and series resistance were compensated by ≥ 80%, and APs were corrected for the calculated liquid junction potential (Barry & Lynch, [1991]). […]

Structure (SMILES): CC1=C(/C=C/C(C)=C/C=C/C(C)=C/C(=O)O)C(C)(C)CCC1 [RA, all-trans retinoic acid]
- COUP-TFII mRNA, hESC-atrial vs hESC-ventricular CMs (COUP-TFII (NR2F2)): over 30 fold
- APAplat of individual cells (differentiating hESCs; RA group, 1 Hz, CT group > 80 mV): < 80 mV
- cells with atrial-like action potential properties (differentiating hESCs; RA treatment group, of 26 cells): about 85%
